Values of other authors in patent US20080233201A1, “Method for Preparing Calibrated Biodegradable Microspheres” (priority 2004, published 2008).

Conditions: at 20° C.

solubility in water: 8.7 g/100 g of water
Compound: CCOC(C)=O [Ethyl acetate]
